pIC50: −log10 of the molar value. Where two headings read alike, the source gives them in different places.
What was measured:
[1] = target: T1, human α2δ2 (hα2δ2) calcium channel subunit (Homo sapiens, UniProt Q9NY47); test: [3H]gabapentin radioligand binding to membranes from HEK293 stable cell line GKS07; settings: for affinity in competition with [3H]gabapentin binding, in words: hα2δ2
T1 construct: covered the whole open reading frame of hα2δ2 cDNA; expressed in transfected cells
Method: Cell culture and transfection. COS-7 and HEK293 cells were cultured in DMEM and RPMI 1640 media, respectively. The media were supplemented with 50 units/mL penicillin, 50 μg/mL streptomycin, and 10% heat-inactivated fetal bovine serum (FBS), in a humidified incubator with 95% air and 5% CO2 at 37° C. For transient transfection into COS-7 cells, 20 μg of plasmid DNA (vector or the same vector with α2δ insert) was incubated with 30 μL of lipofectamine. The mixture was overlaid onto the cells in 1.5 mL serum-free medium and incubated for 5 hours. Then FBS was added to the dishes to bring the final concentration to 10%. The medium was changed next morning. Forty-eight hours after the transfection, the cells were harvested for membrane preparation. For stable transfection of porcine α2δ1 and human α2δ2 into HEK 293 cells, the same procedure was applied as that for a transient transfection except for that 800 μg/mL G418 (gentacin) was added to the cells 48 hours after the transfection. […] The cell line has ATCC No. PTA-1823. In addition, hosts for expression of α2δ2 protein binding assays can also include eukaryotic expression systems such as yeast, insect cells, and mammalian cells (CHO, COS-7, HEK293, etc.).
(§1) Membrane preparation. Membranes were prepared from tissues or cultured cells. The cells were washed twice with cold PBS and then scraped off with cold buffer containing Tris (5 mM, pH 7.4), EDTA (5 mM), PMSF (0.1 mM), leupeptin (0.02 mM), and pepstatin (0.02 mM). The cells were incubated on ice for 30 minutes, followed by sonication for 30 to 40 seconds. For membrane preparations from tissues, the tissues were sliced into small pieces and subjected to sonication at interval of 10 seconds 4 times. The resulting homogenates from tissues or cultured cells were centrifuged for 10 minutes at 750 to 1000×g, and then the supernatants were centrifuged at 50,000×g for 30 minutes. The resulting pellets were resuspended in the same buffer as described above.
Binding assays. […] The membranes (100 μg of proteins for transiently transfected cells, 20 μg for GKS02 cell membranes, and 10 μg for GKS07 cell membranes) were incubated in 10 mM HEPES (N-[2-hydroxyethyl]piperazine-N′-[2-ethanesulfonic acid]) (pH 7.4) for 40 to 50 minutes at room temperature, and then filtered onto pre-wetted GF/C membranes and quickly washed five times with 3 mL of ice cold 50 mM Tris buffer (pH 7.4). The filters were dried and counted in a liquid scintillation counter. For determining nonspecific binding, the binding assays were performed in the presence of 10 μM pregabalin (Gee N. S., Brown J. P., Dissanayake V. U., Offord J.; Thurlow R., Woodruff G. N., J. Biol. Chem., 1996;271:5768–5776). The specific binding was obtained by subtracting nonspecific binding from the total binding. Clone #7 was identified as the highest α2δ2 subunit expressing clone. Binding assays can also be performed using recombinant and/or purified α2δ2 protein from human and other mammalian species, for screening α2δ2 subtype-selective inhibitors.

[2] = target: T2, porcine α2δ1 (pα2δ1) calcium channel subunit (Sus scrofa, UniProt A0A287BIN3); test: [3H]gabapentin radioligand binding to membranes from HEK293 stable cell line GKS02; settings: for affinity in competition with [3H]gabapentin binding, in words: pα2δ1
T2 construct: expressed in transfected cells
T2 sequence (A0A287BIN3 25-1109): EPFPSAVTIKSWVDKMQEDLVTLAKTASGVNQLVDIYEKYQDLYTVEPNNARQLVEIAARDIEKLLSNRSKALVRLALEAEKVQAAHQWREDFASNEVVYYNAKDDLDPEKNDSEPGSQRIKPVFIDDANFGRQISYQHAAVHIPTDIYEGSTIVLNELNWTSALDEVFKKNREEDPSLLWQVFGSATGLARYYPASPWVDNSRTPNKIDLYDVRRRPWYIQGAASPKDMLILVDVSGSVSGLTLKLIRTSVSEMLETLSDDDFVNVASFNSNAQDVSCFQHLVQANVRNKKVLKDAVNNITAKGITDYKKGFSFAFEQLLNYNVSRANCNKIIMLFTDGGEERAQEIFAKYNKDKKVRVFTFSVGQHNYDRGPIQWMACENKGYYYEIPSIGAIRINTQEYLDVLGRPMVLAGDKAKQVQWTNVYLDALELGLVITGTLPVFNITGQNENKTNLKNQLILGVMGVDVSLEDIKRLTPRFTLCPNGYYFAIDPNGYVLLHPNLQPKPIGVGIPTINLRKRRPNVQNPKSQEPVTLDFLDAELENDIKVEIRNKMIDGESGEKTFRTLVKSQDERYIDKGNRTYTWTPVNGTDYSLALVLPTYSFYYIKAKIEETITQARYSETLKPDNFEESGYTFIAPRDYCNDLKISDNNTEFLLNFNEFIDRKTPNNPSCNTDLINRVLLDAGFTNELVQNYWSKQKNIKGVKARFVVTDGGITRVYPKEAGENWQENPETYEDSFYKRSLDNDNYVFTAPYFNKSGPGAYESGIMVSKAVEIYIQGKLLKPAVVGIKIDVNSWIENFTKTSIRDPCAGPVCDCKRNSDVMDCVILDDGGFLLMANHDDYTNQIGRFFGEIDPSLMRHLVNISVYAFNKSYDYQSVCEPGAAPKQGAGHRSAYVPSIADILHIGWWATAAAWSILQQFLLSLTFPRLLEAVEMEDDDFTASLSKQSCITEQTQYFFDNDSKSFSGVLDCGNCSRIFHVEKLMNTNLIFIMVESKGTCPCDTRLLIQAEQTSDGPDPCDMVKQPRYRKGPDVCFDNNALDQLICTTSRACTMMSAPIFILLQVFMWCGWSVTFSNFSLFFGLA
Method: Cell culture and transfection. […] The media were supplemented with 50 units/mL penicillin, 50 μg/mL streptomycin, and 10% heat-inactivated fetal bovine serum (FBS), in a humidified incubator with 95% air and 5% CO2 at 37° C. For transient transfection into COS-7 cells, 20 μg of plasmid DNA (vector or the same vector with α2δ insert) was incubated with 30 μL of lipofectamine. The mixture was overlaid onto the cells in 1.5 mL serum-free medium and incubated for 5 hours. Then FBS was added to the dishes to bring the final concentration to 10%. The medium was changed next morning. Forty-eight hours after the transfection, the cells were harvested for membrane preparation. For stable transfection of porcine α2δ1 and human α2δ2 into HEK 293 cells, the same procedure was applied as that for a transient transfection except for that 800 μg/mL G418 (gentacin) was added to the cells 48 hours after the transfection. […] In addition, hosts for expression of α2δ2 protein binding assays can also include eukaryotic expression systems such as yeast, insect cells, and mammalian cells (CHO, COS-7, HEK293, etc.).
as §1
Binding assays. […] The membranes (100 μg of proteins for transiently transfected cells, 20 μg for GKS02 cell membranes, and 10 μg for GKS07 cell membranes) were incubated in 10 mM HEPES (N-[2-hydroxyethyl]piperazine-N′-[2-ethanesulfonic acid]) (pH 7.4) for 40 to 50 minutes at room temperature, and then filtered onto pre-wetted GF/C membranes and quickly washed five times with 3 mL of ice cold 50 mM Tris buffer (pH 7.4). The filters were dried and counted in a liquid scintillation counter. […] The specific binding was obtained by subtracting nonspecific binding from the total binding.

T1 sequence (Q9NY47 19-1145 isoform Q9NY47-3 limits assumed): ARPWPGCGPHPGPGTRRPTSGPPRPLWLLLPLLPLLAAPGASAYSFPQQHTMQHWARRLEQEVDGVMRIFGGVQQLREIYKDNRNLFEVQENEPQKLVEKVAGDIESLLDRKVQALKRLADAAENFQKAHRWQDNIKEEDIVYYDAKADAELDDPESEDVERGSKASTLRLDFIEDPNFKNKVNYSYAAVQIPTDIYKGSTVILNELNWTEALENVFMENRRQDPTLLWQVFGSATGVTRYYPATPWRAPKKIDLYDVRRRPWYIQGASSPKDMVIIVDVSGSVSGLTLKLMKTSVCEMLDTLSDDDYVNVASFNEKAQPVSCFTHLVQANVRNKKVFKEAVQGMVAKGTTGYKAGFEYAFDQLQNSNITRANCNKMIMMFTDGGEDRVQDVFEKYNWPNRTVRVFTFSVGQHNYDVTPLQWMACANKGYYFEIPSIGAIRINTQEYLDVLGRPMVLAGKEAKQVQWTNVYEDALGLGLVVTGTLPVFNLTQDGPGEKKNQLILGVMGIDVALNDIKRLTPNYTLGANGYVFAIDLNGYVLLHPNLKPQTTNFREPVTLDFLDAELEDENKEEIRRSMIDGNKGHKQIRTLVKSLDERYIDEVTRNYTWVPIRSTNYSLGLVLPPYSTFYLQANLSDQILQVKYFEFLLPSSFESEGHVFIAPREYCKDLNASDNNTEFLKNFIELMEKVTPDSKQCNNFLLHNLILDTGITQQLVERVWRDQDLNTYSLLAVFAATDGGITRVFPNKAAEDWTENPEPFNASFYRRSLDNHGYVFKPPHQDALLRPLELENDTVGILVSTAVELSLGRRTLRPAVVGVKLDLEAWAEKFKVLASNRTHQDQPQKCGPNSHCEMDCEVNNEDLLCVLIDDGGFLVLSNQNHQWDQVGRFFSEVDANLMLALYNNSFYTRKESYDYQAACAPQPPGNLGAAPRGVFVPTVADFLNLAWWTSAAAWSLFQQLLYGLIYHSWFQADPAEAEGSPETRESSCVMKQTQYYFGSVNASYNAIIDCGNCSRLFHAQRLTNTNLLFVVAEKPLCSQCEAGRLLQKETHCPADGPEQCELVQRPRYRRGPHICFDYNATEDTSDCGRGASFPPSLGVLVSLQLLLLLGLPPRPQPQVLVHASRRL
T1 sequence (Q9NY47 1002-1150 partner limits assumed): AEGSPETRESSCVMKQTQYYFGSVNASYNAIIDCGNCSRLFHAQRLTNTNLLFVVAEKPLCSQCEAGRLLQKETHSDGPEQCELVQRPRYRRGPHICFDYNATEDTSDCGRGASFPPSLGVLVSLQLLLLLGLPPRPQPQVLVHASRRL

NC1(C(=O)O)CC2CCC1C2 (stereo not shown) [BCH]
affinity in competition with [3H]gabapentin binding, in words [1]: weak | pIC50 ([1]; read-out: IC50 Values for Inhibition of [3H]Gabapentin Binding, GKS07 (hα2δ2), membranes from HEK293 cell line GKS07, 20 nM [3H]gabapentin): 6.11 | affinity in competition with [3H]gabapentin binding, in words [2]: weak | pIC50 ([2]; read-out: IC50 Values for Inhibition of [3H]Gabapentin Binding, GKS02 (pα2δ1), membranes from HEK293 cell line GKS02, 20 nM [3H]gabapentin): 5.99

CC(C)C[C@@H](N)C(=O)O [D-leucine]
pIC50 [1]: 3.82 | pIC50 [2]: 3.70

NCC1(CC(=O)O)CCCCC1 [Gabapentin, 1-(aminomethyl)cyclohexane acetic acid]
pIC50 [1]: 6.55

CC(C)C[C@H](N)C(=O)O [L-leucine]
pIC50 [1]: 6.69 | affinity in competition with [3H]gabapentin binding, in words [1]: markedly more potent than its D-enantiomer | pIC50 [2]: 6.93 | affinity in competition with [3H]gabapentin binding, in words [2]: markedly more potent than its D-enantiomer

N[C@@H](Cc1ccccc1)C(=O)O [L-phenylalanine]
pIC50 [1]: 5.53 | affinity in competition with [3H]gabapentin binding, in words [1]: weak | pIC50 [2]: 6.08

CC(C)C[C@H](CN)CC(=O)O [Pregabalin, (S+)-3-isobutyl GABA]
pIC50 [1]: 7.02 | pIC50 [2]: 6.83

— patent US7067262B2, “Cell line for the expression of an α2δ2 calcium channel subunit and methods of use” (Warner Lambert Company LLC, priority 2000, dated 2006)
